Here are results for six molecules from publication PMC12333011, “Selective Modulation of Trk Receptors by Cyclo-Organopeptides” (ACS Chemical Neuroscience, 2025).

Square brackets hold non-standard residues; d marks the D form.

For one test, the system named is HeLa-TrkA cells. To be noted: for activity class in cell survival assay, TrkA: HeLa-TrkA cells, 50 μM compound, with or without 0.2 nM NGF, 48-72 h.
For test [1], the system named is dry eye disease (desiccating stress to the eye). As to conditions: summarised from published work, ref number not given, cited from earlier work. The text has this: All of the data for these in vivo assays is now published , and will only be summarized here. […] This negative result is surprising because D3 is a potentiator of NGF in TrkA transfectants.
In the next test the test system is NIH3T3-TrkC cells. To be noted: for activity class in cell survival assay, TrkC: NIH3T3-TrkC cells, 50 μM compound, with or without 0.2 nM NT-3, 48-72 h.
In the next test the test system is HEK293-TrkB cells. To be noted: for shape of dose-response curve, cell survival: HEK293-TrkB cells with 0.6 nM BDNF (suboptimal), EC50s could not be determined; for activity class in cell survival assay, TrkB: HEK293-TrkB cells, 0.4 μM compound, with or without 0.6 nM BDNF, 48-72 h.

In general, EC50 refers to the concentration that produces a half-maximal response.

Method for HEK293-TrkB cells: (§1) Throughout, compounds were tested at 50 μM in TrkA- and C-expressing cells and 0.4 μM in TrkB-expressing cells. […] Samples were tested for promoting cell survival in the absence of NTs (agonism) or in the presence of suboptimal concentrations of NTs whose loops they were designed to mimic (NT potentiation).
Cell Survival Compound Screen
(§2) Cells were seeded at a density of 2000 cells per well. Cells were incubated in complete media for 24
(§3) hours. The media was aspirated, the cells washed twice with Dulbecco’s Phosphate Buffered Saline,
(§4) and the media was replaced with serum-free media to induce apoptosis unless otherwise halted.
(§5) Compound was added to cells (50 μM compound to HeLa-TrkA and NIH3T3-TrkC cells, 0.4 μM for
(§6) HEK293-TrkB) alone (agonism) or in the presence of suboptimal neurotrophin (~25 to 30% survival,
(§7) 0.2 nM NGF, 0.6 nM BDNF, or 0.2 nM NT3 for TrkA, B, or C expressing cells respectively). Cell
(§8) survival was measured via alamarBlue assay after 48-72 hours to determine cell viability. Data was
(§9) normalized to DMSO treatment (0%) and optimal neurotrophin (100%, 2.0 nM NGF, 1.0 nM BDNF,
(§10) 2.0 nM NT-3 for TrkA, B, or C expressing cells, respectively).
Cell Survival of HEK293-TrkB Cells
HEK293-TrkB cells were treated with 0.4 μM compound with or without suboptimal (0.6 nM) levels of
BDNF and cell survival was analyzed after 48-72 hours by the alamarBlue assay. Data was
normalized to DMSO (0%) and 1.0 nM BDNF (100%). Data is represented as the average of 3-6
(§11) points +/- standard deviation from the mean.
Cell Survival Dose Response
The most promising compounds from the screen were selected for each cell line. Cells were treated
(§12) with a serial dilution of the compound in serum free media with or without suboptimal neurotrophin
(§13) and incubated for 48-72 hours, after which an alamarBlue assay was done to determine cell viability.
(§14) Cell viability was normalized to DMSO (0%) and optimal neurotrophin (100%), depending on cell type.
(§15) EC50 was calculated in GraphPad Prism 10.2 using the dose response “[agonist] vs response –
(§16) Variable slope (four parameters)” function. Data is presented as the mean +/- standard deviation of
an experiment with 3-6 replicates.
Method for HeLa-TrkA cells: as §1, §2, §3, §4, §5, §6, §7, §8, §9, §10
HeLa-TrkA cells were treated with 50 μM compound with or without suboptimal (0.2 nM) levels of
NGF and cell survival was analyzed after 48-72 hours by the alamarBlue assay. Data was
normalized to DMSO (0%) and 2.0 nM NGF (100%). Data is represented as the average of 3-6
as §11, §12, §13, §14, §15, §16
an experiment with 3-6 replicates.
Method for NIH3T3-TrkC cells: as §1
Cell Survival Compound Screen
as §2, §3, §4, §5, §6, §7, §8, §9, §10
Cell Survival of NIH3T3-TrkC Cells
NIH3T3-TrkC cells were treated with 50 μM compound with or without suboptimal (0.2 nM) levels of
NT-3 and cell survival was analyzed after 48-72 hours by the alamarBlue assay. Data was
normalized to DMSO (0%) and 2.0 nM NT-3 (100%). Data is represented as the average of 3-6
as §11
Cell Survival Dose Response
as §12, §13, §14, §15, §16
an experiment with 3-6 replicates.

For `CC[C@H](C)[C@@H]1NC(=O)[C@H](CC(N)=O)NC(=O)[C@H](C(C)C)n2cc(nn2)C[C@@H](C(=O)N[C@@H](CCCCNS(=O)(=O)c2cccc3c(N(C)C)cccc23)C(=O)O)NC(=O)[C@H](Cc2ccccc2)NC(=O)[C@H](C(C)C)NC(=O)[C@H](CO)NC(=O)[C@H](CC(N)=O)NC(=O)[C@H](CC(N)=O)NC1=O` [1a(ii)ext], in the test on HeLa-TrkA cells, the EC50 came out at 7.1 µM and the “activity class in cell survival assay, TrkA” value (“activity class … TrkA” for short) is “selective TrkA agonists”.

Consider `CC[C@H](C)[C@@H]1NC(=O)[C@@H]2C[C@@H](CN2)NC(=O)[C@H](CO)NC(=O)[C@H](CC(N)=O)NC(=O)[C@H](CC(N)=O)NC1=O` [3a(ii)], for which, in the test with HeLa-TrkA cells, the 50% effective concentration (EC50) was found to be 10.2 µM and the “activity class … TrkA” value was “selective TrkA agonists”. For the same molecule, the “activity in the preliminary in vivo screen” value in test [1] (murine dry eye disease model) is recorded as “no significant activity”.

On to cyclo([dN]-Lys-Val) [4c(iii)nKV], for which the “activity class in cell survival assay, TrkC” value in the test on NIH3T3-TrkC cells was “selectively modulate cell survival through the TrkC receptors”. Besides, the EC50 with NIH3T3-TrkC cells (read-out: EC50, cell survival of TrkC cells with suboptimal NT-3 (unit inferred), NIH3T3-TrkC cells with 0.2 nM NT-3, sigmoidal dose response, 48-72 h, alamarBlue) was found to be 8.7 µM. For the same molecule, the “NFκB activation (marker of inflammation)” value in test [1] (biochemical experiments in the dry eye studies) is reported as “decreases NFκB activation”. Moreover, the “conjunctival goblet cell densities” value in test [1] (murine dry eye disease model, further studies) is reported as “increase conjunctival goblet cell densities”. Besides, the corneal barrier function entry in test [1] (murine dry eye disease model) is given as “increased corneal barrier function”.

As to cyclo(DSKK) [3b(iii)], in the test with HEK293-TrkB cells, the “shape of dose-response curve, cell survival” value is recorded as “bell-shaped dose–response curve” and the “activity class in cell survival assay, TrkB” value (from here on “activity class … TrkB”) is given as “BDNF potentiators”.

Regarding “M DSKKR (sidechain bridge or staple) [1b(iii)]”, in the test with HEK293-TrkB cells, the “shape of dose-response curve, cell survival” value is given as “bell-shaped dose–response curve” and the “activity class … TrkB” value was “BDNF potentiators”.

Consider `CC[C@H](C)[C@@H]1NC(=O)[C@H](CC(=O)O)NC(=O)[C@@H]2C[C@@H](CN2)NC(=O)CNC(=O)[C@H](CCCNC(=N)N)NC1=O` [3c(i)], for which, in the test with HeLa-TrkA cells, the “activity class … TrkA” value was “agonist of TrkA”. In addition, in the test with NIH3T3-TrkC cells (24 h), the “maximum activity, % survival compared with that imparted by NT-3” value is reported as around 52%. Also, the “activity class in cell survival assay, TrkC” value in the test on NIH3T3-TrkC cells is “potentiator of BDNF and NT-3”. For the same molecule, in the test on HEK293-TrkB cells, the concentration giving a half-maximal response (EC50) is 1 µM; the “activity class … TrkB” value was “potentiator of BDNF and NT-3”. Moreover, the “maximum activity, % of the maximum survival imparted by BDNF” value in the test with HEK293-TrkB cells (24 h) is reported as around 53%. Besides, in test [1] (murine dry eye disease model), the corneal barrier function result is “increased corneal barrier function”.
